Source: patent US4005095A, “Substituted thienyl-acetic acid esters” (Innothera, priority 1974, dated 1977)
Structures can show the parent of a compound that is named as a salt.

Assays:
[1] = in vivo; conditions: mouse, in vivo, ip
Description: (§1) The acute toxicity was evaluated by intraperitoneal administration to mice. The products were suspended in a dilute pseudo-solution of carboxymethyl-cellulose.
(§2) The mortality was checked over the course of the 7 days which followed the treatment.

[2] = test system: rat duodenum; test: spasmolytic activity, papaverine type (contracting agent barium chloride), technique of MAGNUS; format: cell-based; conditions: for IC50: Tyrode solution 38° C, concentration causing 50% inhibition of the contraction, compound tested (X), read-out: Spasmolytic activity, papaverine type, ED 50 (X); for Spasmolytic activity, papaverine type, ratio of ED 50 values, reference (R) to compound (X): relative to papaverine hydrochloride
Description: The spasmolytic activity was studied on the rat duodenum (1) or on the guinea pig ileum (2), kept alive in an aerated Tyrode solution heated to 38° C, in accordance with the technique of MAGNUS (Archiv. Ges. Physiol., 1905, 180, 1-71).
(1) The contracting agent used was barium chloride and the reference antagonistic agent was papaverine hydrochloride (R).

[3] = test system: guinea pig ileum; test: spasmolytic activity, atropine type (contracting agent acetylcholine chloride), technique of MAGNUS; conditions: Cavia porcellus, read-out: Spasmolytic activity, atropine type, ED 50 (X)
Description: (2) The contracting agent used was acetylcholine chloride and the reference antagonistic agent was atropine sulphate (R).
Again, the activity of the compounds tested (X) was compared with that of the reference agent chosen (R), by calculating the ratio of their ED 50 values.

[4] = test system: mice; test: in vivo; conditions: mice, intraperitoneal, mortality over 7 days
Description: as §1, §2

SMILES | LD50 at 168 h [1] [mg/kg] | IC50 [2] [µg/mL] | Spasmolytic activity, papaverine type, ratio of ED 50 values, reference (R) to compound (X) [2] | IC50 [3] [µg/mL] | Acute toxicity in mice, intraperitoneal administration, LD 50 [4] [mg/kg]
CCN(CC)CCCOC(=O)C(c1ccc(C)s1)C1CCCCC1 (stereo not shown) [Example 20, 3-Diethylaminopropyl (5-methyl-thienyl-2)-cyclohexyl-acetate (hydrochloride)] | 80 | 1.1 | 5.45 | 0.009 | –
Cc1ccc(C(C(=O)OCCCN2CCCC2)c2ccccc2)s1 (stereo not shown) [Example 21, 3-Pyrrolidino-propyl (5-methyl-thienyl-2)-phenyl-acetate (oxalate)] | 100 | 2.55 | 2.16 | 0.1 | –
CCN(CC)CCCOC(=O)C(c1ccsc1C)C1CCCCC1 (stereo not shown) [Example 22, 3-Diethylaminopropyl (2-methyl-thienyl-3)-cyclohexyl-acetate hydrochloride] | 80 | 0.38 | 19.75 | 0.0115 | –
O=C(OCCN1CCCCC1)C(=C1CCCCC1)c1ccsc1 [Example 23, 2-Piperidino-ethyl cyclohexylidene-(thienyl-3)-acetate (hydrochloride)] | 80 | 2.4 | 1.46 | 0.39 | –
O=C(OCCCN1CCCCC1)C(=C1CCCCC1)c1ccsc1 [Example 24, 3-Piperidino-propyl cyclohexylidene-(thienyl-3)-acetate hydrochloride] | 150 | 0.8 | 1.56 | 0.8 | –
CC(C[N+]1(C)CCCC1)OC(=O)C(=C1CCCCC1)c1ccsc1.[I-] (stereo not shown) [Example 25, 2-Pyrrolidino-isopropyl cyclohexylidene-(thienyl-3)-acetate (mono-iodomethylate)] | – | – | 1 | – | 80
